Where two headings read alike, the source gives them in different places. A value given as a limit tells only on which side of the number the result lay.

15 molecules from patent US20260347373A1, “HETEROCYCLIC COMPOUNDS, COMPOSITIONS THEREOF, AND METHODS OF TREATMENT THEREWITH” (BeOne Medicines I GmbH, priority 2023, published 2026) can be followed below.

In one assay the target is WT KRAS (Homo sapiens, UniProt P01116). The assay can be described thus: KRAS WT Probe Displacement Assay (TR-FRET, GDP-loaded). Type of assay: binding. The source says:
(§1) The synthetic routes of probe 1 and 2, which have been disclosed in PCT/CN2022/070676, are hereby incorporated herein.
For orientation: TR-FRET usually uses a lanthanide donor and a delayed reading to cut background.

The next assay has as its target KRAS G12D (Homo sapiens, UniProt P01116, G12D). As to the kind of experiment: KRAS G12D Probe Displacement Assay (TR-FRET, GDP-loaded). Type of assay: binding.
Source text: as §1

The mark [1] stands for this setting: KRAS WT, read-out: KRAS^WT Probe Displacement Assay IC50.
The mark [2] stands for this setting: KRAS G12D, read-out: KRAS^G12D Probe Displacement Assay IC50.
Setting [3] is: KRAS^WT Probe Displacement Assay IC50, KRAS WT.
[4] abbreviates: KRAS^G12D Probe Displacement Assay IC50, KRAS G12D.

Sequence of WT KRAS (P01116 1-188 isoform P01116-2): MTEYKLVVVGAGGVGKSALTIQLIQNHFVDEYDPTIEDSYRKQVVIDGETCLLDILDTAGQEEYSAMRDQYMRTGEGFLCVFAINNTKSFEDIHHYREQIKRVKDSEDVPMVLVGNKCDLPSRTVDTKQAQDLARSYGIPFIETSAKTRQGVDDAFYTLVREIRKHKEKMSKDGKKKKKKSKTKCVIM
Sequence of KRAS G12D (P01116 1-188 isoform P01116-2 G12D): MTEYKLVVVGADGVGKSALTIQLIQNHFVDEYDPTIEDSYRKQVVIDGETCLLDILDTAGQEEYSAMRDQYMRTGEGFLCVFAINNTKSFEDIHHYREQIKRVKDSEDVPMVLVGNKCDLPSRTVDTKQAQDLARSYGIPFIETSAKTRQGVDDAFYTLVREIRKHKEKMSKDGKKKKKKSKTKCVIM

A word on the IC50: it is the point on the concentration scale where inhibition reaches its midpoint. As to `Cc1cc(N)cc(-c2nc3c4c(nc(OCC5(CN6CCOC[C@H]6C)CC5)nc4c2F)N2C[C@H]4CC[C@H](N4)[C@H]2CCO3)c1C(F)(F)F` [Example 163, 3-((6aR,7S,10R)-1-fluoro-13-((1-(((R)-3-methylmorpholino)methyl)cyclopropyl)methoxy)-5,6,6a,7,8,9,10,11-octahydro-4-oxa-3,11a,12,14,15-pentaaza-7,10-methanocyclohepta[4,5]cycloocta[1,2,3-de]naphthalen-2-yl)-5-methyl-4-(trifluoromethyl)aniline], the IC50 at WT KRAS (setting [1]) was 3 to 1000 nM; on KRAS G12D (setting [2]), less than 0.3 nM.
For the molecule `Cc1cc(N)cc(-c2nc3c4c(nc(OCC5(CN6CCC6)CC5)nc4c2F)N2C[C@H]4CC[C@H](N4)[C@H]2CCO3)c1C(F)(F)F` [Example 78, 3-((6aR,7S,10R)-13-((1-(azetidin-1-ylmethyl)cyclopropyl)methoxy)-1-fluoro-5,6,6a,7,8,9,10,11-octahydro-4-oxa-3, 11a,12,14,15-pentaaza-7,10-methanocyclohepta [4,5]cycloocta [1,2,3-de]naphthalen-2-yl)-5-methyl-4-(trifluoromethyl)aniline], the figures for the IC50 on WT KRAS (setting [1]) and on KRAS G12D (setting [2]) were 3 to 1000 nM and 0.3 to 3 nM, respectively.
As to `Cc1cc(N)cc(-c2nc3c4c(nc(OCC5(CN6CC[C@@H](F)C6)CC5)nc4c2F)N2C[C@H]4CC[C@H](N4)[C@H]2CCO3)c1C(F)(F)F` [Example 86, 3-((6aR,7S,10R)-1-fluoro-13-((1-(((R)-3-fluoropyrrolidin-1-yl)methyl)cyclopropyl)methoxy)-5,6,6a,7,8,9,10,11-octahydro-4-oxa-3,11a,12,14,15-pentaaza-7,10-methanocyclohepta [4,5]cycloocta [1,2,3-de]naphthalen-2-yl)-5-methyl-4-(trifluoromethyl) aniline], the figures for the IC50 at WT KRAS (setting [3]) and at KRAS G12D (setting [4]) were 3 to 1000 nM and less than 0.3 nM, respectively.
`[2H]C([2H])([2H])c1cc(N)cc(-c2nc3c4c(nc(OC[C@]5(CN(C)C)CC5(F)F)nc4c2F)N2C[C@H]4CC[C@H](N4)[C@H]2CCO3)c1C(F)(F)F` [Example 47, 3-((6aR,7S,10R)-13-(((R)-1-((dimethylamino)methyl)-2,2-difluorocyclopropyl)methoxy)-1-fluoro-5,6,6a,7,8,9,10,11-octahydro-4-oxa-3,11a,12,14,15-pentaaza-7,10-methanocyclohepta[4,5]cycloocta [1,2,3-de]naphthalen-2-yl)-5-(methyl-d3)-4-(trifluoromethyl)aniline]: the IC50 on WT KRAS (setting [1]) was 3 to 1000 nM; on KRAS G12D (setting [2]) it was less than 0.3 nM.
For the molecule `Cc1cc(N)cc(-c2nc3c4c(nc(O[C@H]5C[C@@H]6C[C@H]5CN(C)C6)nc4c2F)N2C[C@H]4CC[C@H](N4)[C@H]2CCO3)c1C(F)(F)F` [Example 198, 3-((6aR,7S,10R)-1-fluoro-13-(((1S,5S,6S)-3-methyl-3-azabicyclo[3.2.1]octan-6-yl)oxy)-5,6,6a,7,8,9,10,11-octahydro-4-oxa-3,11a,12,14,15-pentaaza-7,10-methanocyclohepta[4,5]cycloocta[1,2,3-de]naphthalen-2-yl)-5-methyl-4-(trifluoromethyl)aniline], the values for the IC50 at WT KRAS (setting [1]) and at KRAS G12D (setting [2]) were 3 to 1000 nM and less than 0.3 nM, respectively.
On the same counts, the results for `Cc1cc(N)cc(-c2nc3c4c(nc(OCC5(CN6CC(O)(C(F)(F)F)C6)CC5)nc4c2F)N2C[C@H]4CC[C@H](N4)[C@H]2CCO3)c1C(F)(F)F` [Example 80, 1-((1-((((6aR,7S,10R)-2-(5-amino-3-methyl-2-(trifluoromethyl)phenyl)-1-fluoro-5,6,6a,7,8,9,10,11-octahydro-4-oxa-3,11a,12,14,15-pentaaza-7,10-methanocyclohepta[4,5]cycloocta [1,2,3-de]naphthalen-13-yl)oxy)methyl)cyclopropyl)methyl)-3-(trifluoromethyl) azetidin-3-ol] are 3 to 1000 nM and less than 0.3 nM.
In the case of `CO[C@H]1CCN(CC2(COc3nc4c5c(nc(-c6cc(N)cc(C)c6C(F)(F)F)c(F)c5n3)OCC[C@@H]3[C@@H]5CC[C@H](CN43)N5)CC2)C1` [Example 88, 3-((6aR,7S,10R)-1-fluoro-13-((1-(((S)-3-methoxypyrrolidin-1-yl)methyl)cyclopropyl)methoxy)-5,6,6a,7,8,9,10,11-octahydro-4-oxa-3,11a,12,14,15-pentaaza-7,10-methanocyclohepta [4,5]cycloocta [1,2,3-de]naphthalen-2-yl)-5-methyl-4-(trifluoromethyl) aniline], the figures for the half-inhibitory concentration (IC50) on WT KRAS (setting [3]) and on KRAS G12D (setting [4]) were 3 to 1000 nM and less than 0.3 nM, respectively.
On to `[2H]C([2H])([2H])N1CC[C@H](OC)[C@H]1[C@H](C)Oc1nc2c3c(nc(-c4cc(N)cc(Cl)c4C(F)(F)F)c(F)c3n1)OCC[C@@H]1[C@@H]3CC[C@H](CN21)N3` [Example 218, 3-chloro-5-((6aR,7S,10R)-1-fluoro-13-((S)-1-((2R,3S)-3-methoxy-1-(methyl-d3)pyrrolidin-2-yl)ethoxy)-5,6,6a,7,8,9,10,11-octahydro-4-oxa-3,11a,12,14,15-pentaaza-7,10-methanocyclohepta[4,5]cycloocta[1,2,3-de]naphthalen-2-yl)-4-(trifluoromethyl)aniline], for which the values for the IC50 on WT KRAS (setting [1]) and on KRAS G12D (setting [2]) were 0.3 to 3 nM and less than 0.3 nM, respectively.
The like results for `C[C@]1(COc2nc3c4c(nc(-c5cc(N)cc(Cl)c5C(F)(F)F)c(F)c4n2)OCC[C@@H]2[C@@H]4CC[C@H](CN32)N4)CCCN(C2CCOCC2)C1` [Example 196, 3-chloro-5-((6aR,7S,10R)-1-fluoro-13-(((S)-3-methyl-1-(tetrahydro-2H-pyran-4-yl)piperidin-3-yl)methoxy)-5,6,6a,7,8,9,10,11-octahydro-4-oxa-3,11a,12,14,15-pentaaza-7,10-methanocyclopenta[4,5]cycloocta[1,2,3-de]naphthalen-2-yl)-4-(trifluoromethyl)aniline] were, in that order, 0.3 to 3 nM and less than 0.3 nM.
On the same counts, the results for `Cc1cc(N)cc(-c2nc3c4c(nc(OCC5(CN6[C@@H]7CC[C@H]6CC(F)(F)C7)CC5)nc4c2F)N2C[C@H]4CC[C@H](N4)[C@H]2CCO3)c1C(F)(F)F` [Example 175, 3-((6aR,7S,10R)-13-((1-(((1R,5S)-3,3-difluoro-8-azabicyclo[3.2.1]octan-8-yl)methyl)cyclopropyl)methoxy)-1-fluoro-5,6,6a,7,8,9,10,11-octahydro-4-oxa-3,11a,12,14,15-pentaaza-7,10-methanocyclohepta[4,5]cycloocta[1,2,3-de]naphthalen-2-yl)-5-methyl-4-(trifluoromethyl)aniline] are 3 to 1000 nM and less than 0.3 nM.
For `CCN1CC(F)CC(C)(COc2nc3c4c(nc(-c5cc(N)cc(C)c5C(F)(F)F)c(F)c4n2)OCC[C@@H]2[C@@H]4CC[C@H](CN32)N4)C1` (stereo partly drawn) [Example 202, 3-((6aR,7S,10R)-13-((1-ethyl-5-fluoro-3-methylpiperidin-3-yl)methoxy)-1-fluoro-5,6,6a,7,8,9,10,11-octahydro-4-oxa-3,11a,12,14,15-pentaaza-7,10-methanocyclohepta[4,5]cycloocta[1,2,3-de]naphthalen-2-yl)-5-methyl-4-(trifluoromethyl)aniline], the IC50 at WT KRAS (setting [1]) was 3 to 1000 nM; on KRAS G12D (setting [2]), less than 0.3 nM.
For the molecule `COC[C@H]1[C@@H]2C[C@@H]2CN1CC1(COc2nc3c4c(nc(-c5cc(N)cc(C)c5C(F)(F)F)c(F)c4n2)OCC[C@@H]2[C@@H]4CC[C@H](CN32)N4)CC1` [Example 181, 3-((6aR,7S,10R)-1-fluoro-13-((1-(((1R,2R,5S)-2-(methoxymethyl)-3-azabicyclo[3.1.0]hexan-3-yl)methyl)cyclopropyl)methoxy)-5,6,6a,7,8,9,10,11-octahydro-4-oxa-3,11a,12,14,15-pentaaza-7,10-methanocyclohepta[4,5]cycloocta[1,2,3-de]naphthalen-2-yl)-5-methyl-4-(trifluoromethyl)aniline], the IC50 is 3 to 1000 nM at WT KRAS (setting [1]) and less than 0.3 nM at KRAS G12D (setting [2]).
As to `Cc1cc(N)cc(-c2nc3c4c(nc(OCC5(CN6C[C@H]7COC[C@H]7C6)CC5)nc4c2F)N2C[C@H]4CC[C@H](N4)[C@H]2CCO3)c1C(F)(F)F` [Example 100, 3-((6aR,7S,10R)-1-fluoro-13-((1-(((3aR,6aS)-tetrahydro-1H-furo[3,4-c]pyrrol-5(3H)-yl)methyl)cyclopropyl)methoxy)-5,6,6a,7,8,9,10,11-octahydro-4-oxa-3,11a,12,14,15-pentaaza-7,10-methanocyclohepta [4,5]cycloocta [1,2,3-de]naphthalen-2-yl)-5-methyl-4-(trifluoromethyl) aniline], the values for the IC50 at WT KRAS (setting [3]) and at KRAS G12D (setting [4]) were 0.3 to 3 nM and less than 0.3 nM, respectively.
The like results for `Cc1cc(N)cc(-c2nc3c4c(nc(OCC5(CN6CC=CCC6)CC5)nc4c2F)N2C[C@H]4CC[C@H](N4)[C@H]2CCO3)c1C(F)(F)F` [Example 112, 3-((6aR,7S,10R)-13-((1-((3,6-dihydropyridin-1(2H)-yl)methyl)cyclopropyl)methoxy)-1-fluoro-5,6,6a, 7,8,9,10,11-octahydro-4-oxa-3,11a,12,14,15-pentaaza-7,10-methanocyclohepta [4,5]cycloocta [1,2,3-de]naphthalen-2-yl)-5-methyl-4-(trifluoromethyl) aniline] were, in that order, 3 to 1000 nM and less than 0.3 nM.
As to `Cc1nc(N)cc(-c2nc3c4c(nc(OCC5(CN6CCC(=C(F)F)C6)CC5)nc4c2F)N2C[C@H]4CC[C@H](N4)[C@H]2CCO3)c1C(F)(F)F` [Example 150, 4-((6aR,7S,10R)-13-((1-((3-(difluoromethylene)pyrrolidin-1-yl)methyl)cyclopropyl)methoxy)-1-fluoro-5,6,6a,7,8,9,10,11-octahydro-4-oxa-3,11a,12,14,15-pentaaza-7,10-methano-cyclohepta[4,5]cycloocta [1,2,3-de]naphthalen-2-yl)-6-methyl-5-(trifluoromethyl)pyridin-2-amine], the IC50 on WT KRAS (setting [1]) is 3 to 1000 nM; at KRAS G12D (setting [2]) it was less than 0.3 nM.
